Each structure is given as a SMILES string. Some results are limits rather than exact numbers.

Holding throughout (experiment): HDAC6 fluorescence anisotropy assay
Common to all, as to conditions: 25 °C
For orientation: In fluorescence polarisation assays a small probe gives low polarisation when free and higher when bound to something large.

Assay [1] has as its target T1, Histone deacetylase 6 [440-798] (Danio rerio, UniProt F8W4B7).
T1 construct: 440-798
T1 sequence (F8W4B7 whole entry): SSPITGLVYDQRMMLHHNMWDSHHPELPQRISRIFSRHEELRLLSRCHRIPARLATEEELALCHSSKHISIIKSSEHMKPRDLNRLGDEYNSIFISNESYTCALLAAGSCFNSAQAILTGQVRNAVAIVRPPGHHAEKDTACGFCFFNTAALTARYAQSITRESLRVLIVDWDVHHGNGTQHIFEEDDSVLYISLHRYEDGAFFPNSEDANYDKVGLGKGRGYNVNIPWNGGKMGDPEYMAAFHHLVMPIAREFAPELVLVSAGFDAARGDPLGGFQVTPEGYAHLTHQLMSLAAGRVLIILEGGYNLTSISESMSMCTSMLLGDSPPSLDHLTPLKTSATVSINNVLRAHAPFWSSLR

In assay [2] the target is T2, Histone deacetylase 6 [440-798,S531A] (Danio rerio, UniProt F8W4B7, S531A).
T2 construct: 440-798
T2 sequence (F8W4B7 as listed by the source S531A): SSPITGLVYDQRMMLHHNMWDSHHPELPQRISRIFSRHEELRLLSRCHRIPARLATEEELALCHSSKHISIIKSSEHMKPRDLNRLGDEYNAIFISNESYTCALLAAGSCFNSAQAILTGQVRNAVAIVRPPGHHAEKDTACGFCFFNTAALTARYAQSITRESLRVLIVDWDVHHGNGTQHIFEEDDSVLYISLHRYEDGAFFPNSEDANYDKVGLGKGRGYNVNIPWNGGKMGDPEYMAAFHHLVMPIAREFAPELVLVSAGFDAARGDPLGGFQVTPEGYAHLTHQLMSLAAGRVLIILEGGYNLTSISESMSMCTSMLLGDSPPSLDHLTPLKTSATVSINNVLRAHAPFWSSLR

For assay [3], the target named is T3, Histone deacetylase 6 [60-420,H82F,F202Y] (Danio rerio, UniProt F8W4B7, F202Y/H82F).
T3 construct: 60-420
T3 sequence (F8W4B7 as listed by the source H82F/F202Y): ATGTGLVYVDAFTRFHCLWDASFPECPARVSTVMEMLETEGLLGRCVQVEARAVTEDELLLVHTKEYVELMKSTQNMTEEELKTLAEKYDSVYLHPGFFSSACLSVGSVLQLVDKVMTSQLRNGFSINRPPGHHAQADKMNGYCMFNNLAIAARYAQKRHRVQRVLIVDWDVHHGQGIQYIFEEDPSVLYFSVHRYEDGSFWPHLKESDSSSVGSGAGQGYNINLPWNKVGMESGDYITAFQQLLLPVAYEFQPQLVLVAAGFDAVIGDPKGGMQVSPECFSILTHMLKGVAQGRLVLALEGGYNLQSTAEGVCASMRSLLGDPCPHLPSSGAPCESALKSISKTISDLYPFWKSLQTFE

Assay [4] concerns the target T4, Histone deacetylase 6 [60-420] (Danio rerio, UniProt F8W4B7).
T4 construct: 60-420
T4 sequence (F8W4B7 whole entry): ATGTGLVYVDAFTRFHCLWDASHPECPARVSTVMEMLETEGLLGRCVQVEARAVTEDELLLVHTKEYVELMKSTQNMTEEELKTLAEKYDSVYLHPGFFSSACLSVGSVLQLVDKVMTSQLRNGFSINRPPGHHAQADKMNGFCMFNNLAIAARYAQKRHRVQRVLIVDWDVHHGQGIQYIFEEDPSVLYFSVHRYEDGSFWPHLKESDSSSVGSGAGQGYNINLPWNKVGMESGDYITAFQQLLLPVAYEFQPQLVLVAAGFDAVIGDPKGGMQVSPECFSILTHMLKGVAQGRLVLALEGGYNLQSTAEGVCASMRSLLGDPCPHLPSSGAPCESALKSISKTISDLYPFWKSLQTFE

Assay [5] concerns the target T5, Histone deacetylase 6 [84-835,H255V] (Homo sapiens, UniProt Q9UBN7, H255V).
T5 construct: 84-835

Assay [6] deals with T6, Histone deacetylase 6 [84-835,H651V] (Homo sapiens, UniProt Q9UBN7, H651V).
T6 construct: 84-835
T6 sequence (Q9UBN7 84-835 H651V): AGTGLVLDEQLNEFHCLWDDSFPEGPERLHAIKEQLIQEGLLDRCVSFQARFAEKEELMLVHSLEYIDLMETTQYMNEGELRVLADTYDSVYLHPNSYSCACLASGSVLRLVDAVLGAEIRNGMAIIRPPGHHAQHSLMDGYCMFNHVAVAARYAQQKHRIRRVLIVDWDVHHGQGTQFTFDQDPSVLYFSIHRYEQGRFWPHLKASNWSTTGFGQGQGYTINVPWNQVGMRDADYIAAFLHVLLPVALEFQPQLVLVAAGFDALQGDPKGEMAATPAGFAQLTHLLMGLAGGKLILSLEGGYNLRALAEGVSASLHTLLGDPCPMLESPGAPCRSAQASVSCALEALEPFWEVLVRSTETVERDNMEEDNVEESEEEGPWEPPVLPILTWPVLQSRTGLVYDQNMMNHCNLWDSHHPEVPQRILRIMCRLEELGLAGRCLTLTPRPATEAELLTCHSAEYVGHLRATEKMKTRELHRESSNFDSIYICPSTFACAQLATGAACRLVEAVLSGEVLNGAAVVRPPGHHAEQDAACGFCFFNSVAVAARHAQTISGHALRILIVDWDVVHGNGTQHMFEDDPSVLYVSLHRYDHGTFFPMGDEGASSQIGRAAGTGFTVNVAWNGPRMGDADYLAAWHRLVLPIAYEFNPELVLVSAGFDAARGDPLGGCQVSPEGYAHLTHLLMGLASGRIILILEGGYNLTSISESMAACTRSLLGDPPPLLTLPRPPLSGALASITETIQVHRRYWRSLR

Assay [7] addresses T7, Histone deacetylase 6 [84-835] (Homo sapiens, UniProt Q9UBN7).
T7 construct: 84-835
T7 sequence (Q9UBN7 whole entry): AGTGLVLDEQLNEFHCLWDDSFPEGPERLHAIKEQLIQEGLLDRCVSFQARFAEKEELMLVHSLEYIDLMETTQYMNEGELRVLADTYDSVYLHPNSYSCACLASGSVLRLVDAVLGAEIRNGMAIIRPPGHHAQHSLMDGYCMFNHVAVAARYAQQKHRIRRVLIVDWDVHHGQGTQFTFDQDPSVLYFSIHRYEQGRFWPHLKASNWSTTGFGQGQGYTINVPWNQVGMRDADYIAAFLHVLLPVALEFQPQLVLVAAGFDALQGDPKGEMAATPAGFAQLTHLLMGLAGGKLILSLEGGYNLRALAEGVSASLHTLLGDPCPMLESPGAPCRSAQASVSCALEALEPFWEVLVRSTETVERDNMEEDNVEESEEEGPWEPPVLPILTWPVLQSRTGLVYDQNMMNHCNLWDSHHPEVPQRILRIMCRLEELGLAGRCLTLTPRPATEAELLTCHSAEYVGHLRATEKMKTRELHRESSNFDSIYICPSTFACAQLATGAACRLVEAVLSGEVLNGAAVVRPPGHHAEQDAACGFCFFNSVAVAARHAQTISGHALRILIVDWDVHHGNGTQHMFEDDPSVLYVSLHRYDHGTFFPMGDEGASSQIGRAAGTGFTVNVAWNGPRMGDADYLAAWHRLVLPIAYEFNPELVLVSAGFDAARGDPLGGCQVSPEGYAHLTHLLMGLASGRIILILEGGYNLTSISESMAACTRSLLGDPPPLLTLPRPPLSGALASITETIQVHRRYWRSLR

T5 sequence (Q9UBN7 84-835 H255V): as the sequence (Q9UBN7 84-835 H651V) above, with H172V, V568H counted along it

In assay [1], `O=C(/C=C/c1cccc(S(=O)(=O)Nc2ccccc2)c1)NO` [Belinostat] yielded an IC50 of 1.9 nM and a Ki of 1.1 nM.
In the same order, the values of `O=C(NO)c1ccc(CC(=O)N(CCO)c2ccccc2)cc1` [HPOB] are 1.8 nM and 1 nM.
In the same order, the values of `Cc1[nH]c2ccccc2c1CCNCc1ccc(C=CC(=O)NO)cc1` [Panobinostat] are 2.5 nM and 1.4 nM.
Taken in the same sequence, the figures for `CC(=O)C(F)(F)F` [Trifluoroketone] were 1400 nM and 800 nM.
`O=C(CCCCCCC(=O)Nc1ccccc1)NO` [Zolinza]: in assay [1], the IC50 was ≤ 1.1 nM and the Ki was 0.6 nM.
For the compound `O=C(CCCCCCC(=O)Nc1ccc(-c2c3ccc(=O)cc-3oc3cc(O)ccc23)c(C(=O)O)c1)NO` [fl-SAHA], the Kd in assay [2] was 170 nM; in assay [1] it was 50 nM; in assay [3] it was 2900 nM; in assay [4], 1600 nM; in assay [5], 240 nM; in assay [6], 30000 nM. The same compound registered a Kd in assay [7] of 300 nM.

For orientation: IC50 means the point on the concentration scale where inhibition reaches its midpoint. Read a high IC50 as weaker potency. By Ki is commonly meant a measure of affinity in units of concentration, obtained from inhibition or displacement. Low values mean a stronger hold on the target, high ones a looser hold on the target. Usually Kd stands for the free concentration of one partner at which half of the binding sites on the other are occupied at equilibrium, for simple one-to-one binding. Low values mean a tighter complex, high ones a looser complex.

The values are drawn from BindingDB's records for doi:10.1038/nchembio.2134 (University of Pennsylvania, 2016).
